# Laboratory results as given in patent US3956491A, “Medicine containing the main sapogenin of helleborus” (priority 1974, dated 1976).
# What was measured:
# [1] = central nervous system influencing activity
# [2] = tested on: histamine ulcers of guinea pigs; test: histamine type of ulcer of guinea pigs (method of Eagleton and Watt); assay type: in vivo; details: oral, histamine diphosphate 5 mg/kg
# Method: The testing of the histamine type of ulcer of guinea pigs is carried out for example by the method of Eagleton and Watt (Peptic Ulcer, Pfeiffer, Munksgaard, Copenhagen, printed in Denmark by Aarhuus, Stiftsbogtrykkerie A/S Arhus ISBN 8716003225 pages 34-44). The entire disclosure of the Eagleton and Watt article is hereby incorporated by reference and relied upon. There were employed predominantly male guinea pigs weighing 300 to 400 grams and the test substance was applied orally after 24 hour feeding intervals and 12 hours deprivation of drinking water. One hour after giving the substance the guinea pigs were given the injection of histamine diphosphate (histamine acid phosphate) at a dosage of 5 mg/kg (the histamine diphosphate was employed in aqueous solution at a concentration of 1 mg histamine disphosphate/ml). The histamine diphosphate was injected introperitoneally. Three hours after the injection of histamine the animals were killed with CO2. The stomachs were resected and cut open along the small curvature and turned upside down over the examination finger. The ulcers were evaluated according to Munchow (Arzneimittelforschung Vol. 4 (1954 pages 341-344).
# The calculated control index must in the order of magnitude between 5 and 15.
# [3] = acute toxicity in the mouse (method of Miller and Tainter); details: in vivo, oral application
# Method: The acute toxicity of the compound of the invention in the mouse (expressed by LD50 mg/kg; method of Miller and Tainter; Proc. Soc. Exper. Biol. a. Med. Vol 57 (1944) pages 261 et seq.) on oral application, for example is above 6000 mg/kg.
# [4] = ulcer healing / antiulcer activity, general statement (test not specified); assay type: in vivo
# [5] = tested on: indometacin ulcer of rats; test: indometacin ulcer of rats (method of John and Adrian modified by Wilhelmi); assay type: in vivo, Albino rats of the strain SIV 50; details: for ULCER PROTECTING EFFECT: indometacin 20 mg/kg, 24 h
# Method: These tests were carried out according to the method of John and Adrian modified by Wilhelmi on the indometacin ulcer of rats (see Arzeimittelforschung Vol. 19 (1969) pages 45 et seq.).
# The determination is carried out in the following manner.
# Albino rats of the strain SIV 50 (S. Ivanovas, Kisslegg/allgau) having an initial weight of 250 to 300 grams were held in controlled temperature rooms at 20° to 22°C. in wire cages (Ebeco, Type 3 double width) on a standard diet (Altromin). After 48 hour feeding intervals the animals received 20 mg/kg rat of indometacin in 1.5% tragacanth (1 ml tragacanth solution per 100 grams of rat) applied introgastrally.
# One hour after giving the indometacin there was dispensed orally to the animals the test substance. The rats remain otherwise fasting (water ad libitum)
# Twenty four hours after giving the indometacin the animals were killed with […]. The stomach was resected, opened along the great curvature and washed under flowing water.
# The ulcerative changes appear as dark, point or stria shaped spots on the mucosa. The evaluation was done according to the method of Munchow Arneimittedforschung Vol. 4 (1954) pages 341-344.
compound,measurement,setting,value
"C=C1CC[C@@]2(OC1)O[C@H]1C[C@H]3[C@@H]4CC=C5C[C@@H](O)C[C@@H](O)[C@]5(C)[C@H]4[C@H](O)C[C@]3(C)[C@H]1[C@@H]2C [Helleborus main sapogenin, spiro-5,25(27)-diene-1β,3β,11α-triol]",central nervous system influencing activity,[1],central nervous system influencing activity has been established
same,anti-ulcer activity,[2],good anti-ulcer activity
same,LD50,[3],> 6000 mg/kg
same,antiulcer activity compared with Biogastrone,[4]; comparison with the known medicine Biogastrone,comparable to the activity of the known medicine Biogastrone
same,ulcer healing activity,[4]; in vivo,has an ulcer healing activity
same,muscle relaxing activity,muscle relaxing activity,muscle relaxing
same,ULCER PROTECTING EFFECT,"[5]; daily dosage 50 mg/kg, oral",58%
same,ULCER PROTECTING EFFECT,"[5]; daily dosage 100 mg/kg, oral",78%
same,ULCER PROTECTING EFFECT,"[5]; daily dosage 200 mg/kg, oral",80%
same,anti-ulcer activity,"[5]; indometacin ulcers of rats, oral",good anti-ulcer activity
same,minimal effective dose,"[5]; po, orally, above mentioned animal experiments (indometacin ulcers of rats, histamine ulcers of guinea pigs), read-out: lowest effective dosage",50 mg/kg
